Here are results for 40 compounds from paper PMC11200976, “Pitavastatin Calcium Confers Fungicidal Properties to Fluconazole by Inhibiting Ubiquinone Biosynthesis and Generating Reactive Oxygen Species” (Antioxidants, 2024).

Counter-ions that a name gives are not always drawn. Like-named read-outs stand apart in the source and are kept apart here.

Type in all cases: cell-based, Candida albicans
For test [1], the system named is C. albicans. Put plainly: Broth microdilution assay of synergistic lethality with 4 μg/mL FLC (recovery on drug-free YPD). The settings on record: for synergistic lethal concentration (converts FLC from fungistatic to fungicidal): with 4 μg/mL FLC, tested 100 μM to 0.1953 μM, 30 °C, 48 h. A general note: Dilution methods test growth across graded concentrations, often in twofold steps.

Test [2] relates to C. albicans SC5314, SN152, cmp1-aid∆/cmp1-aid∆, and PADH1-UPC2 strains. Put plainly: FLC disk diffusion assays (25 μg FLC disk, 5 μM adjuvant). The settings on record: for synergistic lethal effects with FLC compared to GdA and CsA (disk diffusion): Figure S3. As to the method: Yeast cells were cultured overnight at a temperature of 30 °C, and the resulting cell suspension was diluted to a concentration of 1 × 10^7 cells/mL in phosphate-buffered saline (PBS). At a concentration of 5 μM, the drugs were individually added to YPD plates for disk assays using a 25 μg FLC disk (6 mm, Liofilchem, Roseto degli Abruzzi, Italy). The plates were then incubated at 30 °C for 48 h. Subsequently, the disk was transferred to a drug-free YPD plate, which was incubated at 30 °C for 24 h and photographed.
Background: Agar diffusion results depend on both activity and mobility in agar.

Test [3] has as its system C. albicans. As to the kind of experiment: Dose–matrix titration assays (synergy, with YPD recovery plates). The settings on record: for concentration that renders FLC fungicidal (no recovery on YPD solid medium): FLC ≤4 μg/mL, 30 °C, 48 h; for effect of azole combined with PIT: Figure 5B. As to the method: The synergistic effects of drugs were conducted following the same procedure as the MIC assays. Specifically, 50 μL of drug A was distributed through two-fold serial dilution across seven plate columns. Subsequently, 50 μL of drug B was distributed in a two-fold serial dilution manner along seven rows of the plate. Furthermore, 100 μL of C. albicans cultures, adjusted to a density of 1 × 10^3 cells/mL, was dispensed into wells containing drugs and one control well devoid of any drugs. Before the 48 h OD600 readings, the plates were subjected to meticulous agitation to ensure the deposition of a representative 2 μL aliquot from each well onto newly prepared YPD recovery plates, thereby facilitating the evaluation of cellular recuperation following drug treatments. The recovery plates were subsequently incubated at a temperature of 30 °C for a duration ranging from 24 to 48 h, after which they were photographed. The experimental procedures were conducted in triplicate to ensure reliability and reproducibility.

Setting [4] is: concentration of the compound that is synergistically lethal with 4 μg/mL FLC, C. albicans, recovery on drug-free YPD.

In the case of `CC(C)(C)c1cc(NC(=O)Nc2ccc(-c3cn4c(n3)sc3cc(OCCN5CCOCC5)ccc34)cc2)no1` [Quizartinib], in the test on C. albicans [1] (setting [4]), the Synergistic lethal concentrations amounted to 6.25 µM.
On the same count and under the same terms, the value for `COC(=O)[C@H]1[C@H]2C[C@@H]3c4[nH]c5cc(OC)ccc5c4CCN3C[C@H]2C[C@@H](OC(=O)c2cc(OC)c(OC)c(OC)c2)[C@@H]1OC.Cl` [Reserpine (hydrochloride)] was 100 µM; that for `COC(=O)[C@H]1[C@H]2C[C@@H]3c4[nH]c5cc(OC)ccc5c4CCN3C[C@H]2C[C@@H](OC(=O)c2cc(OC)c(OC)c(OC)c2)[C@@H]1OC` [Reserpine] was 50 µM; that for `C[C@@H](OC[C@@]1(c2ccccc2)CC[C@]2(CCC(=O)N2)CN1)c1cc(C(F)(F)F)cc(C(F)(F)F)c1` [Rolapitant] was 12.5 µM.
The same measure, in the same setting: the result for `CC(C)c1nc(N(C)S(C)(=O)=O)nc(-c2ccc(F)cc2)c1/C=C/[C@@H](O)C[C@@H](O)CC(=O)[O-].CC(C)c1nc(N(C)S(C)(=O)=O)nc(-c2ccc(F)cc2)c1/C=C/[C@@H](O)C[C@@H](O)CC(=O)[O-].[Ca+2]` [Rosuvastatin (Calcium)] reads 50 µM; that for `OCc1cc(C(O)CNCCCCCCOCCCCc2ccccc2)ccc1O` (centres unmarked) [Salmeterol], 100 µM; that for `CC(C)(C)NC(=O)[C@@H]1C[C@@H]2CCCC[C@@H]2CN1C[C@@H](O)[C@H](Cc1ccccc1)NC(=O)[C@H](CC(N)=O)NC(=O)c1ccc2ccccc2n1` [Saquinavir], 50 µM.
As to `CO[C@H]1C[C@H](O[C@@H]2/C(C)=C/C[C@@H]3C[C@@H](C[C@]4(CC[C@H](C)[C@@H](C5CCCCC5)O4)O3)OC(=O)[C@@H]3C=C(C)/C(=N/O)[C@H]4OC/C(=C\C=C\[C@@H]2C)[C@]43O)O[C@@H](C)[C@@H]1O` [Selamectin], the Synergistic lethal concentrations in the test on C. albicans [1] was 12.5 µM.
Turning to `O=C1NCCN1CCN1CCC(c2cn(-c3ccc(F)cc3)c3ccc(Cl)cc23)CC1` [Sertindole], the Synergistic lethal concentrations with C. albicans [1] (setting [4]) was found to be 25 µM.
With `CN[C@H]1CC[C@@H](c2ccc(Cl)c(Cl)c2)c2ccccc21.Cl` [Sertraline (hydrochloride)], the Synergistic lethal concentrations in the test with C. albicans [1] (setting [4]) came out at 25 µM.
Still for that read-out and setting: the value for `O=C(O)CCC(=O)O.O=C(O[C@H]1CN2CCC1CC2)N1CCc2ccccc2[C@@H]1c1ccccc1` [Solifenacin (Succinate)] was 100 µM.
Still for that read-out and setting: the value for `CCOc1ccc(Cc2cc([C@@H]3O[C@H](SC)[C@@H](O)[C@H](O)[C@H]3O)ccc2Cl)cc1` [Sotagliflozin] was 100 µM; that for `CC(C)(C)C(O)/C=C/c1ccc2c(c1)OCO2` (centres unmarked) [Stiripentol] was 100 µM; that for `COc1cc(C)c2c(Oc3cccc(C(F)(F)F)c3)c(OC)cc(NC(C)CCCN)c2n1.O=C(O)CCC(=O)O` (centres unmarked) [Tafenoquine (Succinate)] was 25 µM.
Regarding `Cn1ncnc1[C@H]1c2n[nH]c(=O)c3cc(F)cc(c23)N[C@@H]1c1ccc(F)cc1` [Talazoparib tosylate], the Synergistic lethal concentrations in the test on C. albicans [1] (setting [4]) was 100 µM.
On the same count and under the same terms, the result for `CCCCCNC(=N)N/N=C/c1c[nH]c2ccc(OC)cc12.O=C(O)/C=C\C(=O)O` [Tegaserod (maleate)] reads 6.25 µM.
Turning to `CN(C/C=C/C#CC(C)(C)C)Cc1cccc2ccccc12` [Terbinafine], in the test on C. albicans [1] (setting [4]), the Synergistic lethal concentrations turned out to be 6.25 µM.
On the same count and under the same terms, the result for `CC(C)(CO)c1cc2cc(NC(=O)C3(c4ccc5c(c4)OC(F)(F)O5)CC3)c(F)cc2n1C[C@@H](O)CO` [Tezacaftor] reads 100 µM.
Same read-out and setting: the result for `CSc1ccc2c(c1)N(CCC1CCCCN1C)c1ccccc1S2.Cl` (centres unmarked) [Thioridazine (hydrochloride)] reads 100 µM; that for `CCCCCCCCCCCCCCCC[N+](C)(C)CCN(Cc1ccc(OC)cc1)c1ncccn1.[Br-]` [Thonzonium (bromide)], 100 µM.
`O=C(O)Cc1cc(I)c(Oc2ccc(O)c(I)c2)c(I)c1` [Tiratricol]: the Synergistic lethal concentrations in the test with C. albicans [1] (setting [4]) turned out to be 100 µM.
With `Cc1ccc(O)c([C@H](CCN(C(C)C)C(C)C)c2ccccc2)c1` [Tolterodine], in the test with C. albicans [1] (setting [4]), the Synergistic lethal concentrations is 100 µM.
With `CC(C)OC(=O)CCC/C=C\C[C@@H]1[C@@H](/C=C/[C@@H](O)COc2cccc(C(F)(F)F)c2)[C@H](O)C[C@@H]1O` [Travoprost], the Synergistic lethal concentrations in the test on C. albicans [1] (setting [4]) is 100 µM.
On the same count and under the same terms, the result for `Cl.OC(CCN1CCCCC1)(c1ccccc1)C1CCCCC1` (centres unmarked) [Trihexyphenidyl (hydrochloride)] reads 100 µM; that for `Cc1onc(-c2ccccc2)c1-c1ccc(S(N)(=O)=O)cc1` [Valdecoxib], 100 µM; that for `O=C(O)C(c1ccccc1)(c1ccccc1)c1ccccc1.OCc1cc([C@@H](O)CNCCCCCCOCCOCc2c(Cl)cccc2Cl)ccc1O` [Vilanterol (trifenatate], 100 µM.
With `CC1=C(C)C(=O)C(CCCCCCCCCC[P+](c2ccccc2)(c2ccccc2)c2ccccc2)=CC1=O.[Br-]` [Visomitin], the Synergistic lethal concentrations in the test on C. albicans [1] (setting [4]) is 50 µM.
For `C=C/C=C/C[C@@H](C)[C@@H](O)[C@H]1C(=O)N[C@@H](CC)C(=O)N(C)CC(=O)N(C)[C@@H](CC(C)C)C(=O)N[C@@H](C(C)C)C(=O)N(C)[C@@H](CC(C)C)C(=O)N[C@@H](C)C(=O)N[C@H](C)C(=O)N(C)[C@@H](CC(C)C)C(=O)N(C)[C@@H](CC(C)C)C(=O)N(C)[C@@H](C(C)C)C(=O)N1C` [Voclosporin], the Synergistic lethal concentrations with C. albicans [1] (setting [4]) stood at 0.1953 µM.
For the compound `Br.Cc1ccc(Sc2ccccc2N2CCNCC2)c(C)c1` [Vortioxetine (hydrobromide)], the Synergistic lethal concentrations with C. albicans [1] (setting [4]) turned out to be 100 µM.
Regarding `CC(C)n1nccc1-c1ncccc1COc1cccc(O)c1C=O` [Voxelotor], in the test with C. albicans [1] (setting [4]), the Synergistic lethal concentrations is 100 µM.
As to `COCc1c(C(C)C)nc(C(C)C)c(/C=C/[C@@H](O)C[C@@H](O)CC(=O)O)c1-c1ccc(F)cc1` [cerivastatin sodium], the “effect on FLC tolerance in FLC disk diffusion, all four strains” value in test [2] (SC5314, SN152, cmp1-aid∆/cmp1-aid∆, PADH1-UPC2) is “made FLC fungicidal”. In the test on C. albicans [1], the “synergistic lethal concentration (converts FLC from fungistatic to fungicidal)” value is at most 6.25 µM. Also, the “concentration that renders FLC fungicidal (no recovery on YPD solid medium)” value in the test on C. albicans [3] was at most 3.125 µM.
For the compound `N=C(NCCCCCCNC(=N)NC(=N)Nc1ccc(Cl)cc1)NC(=N)Nc1ccc(Cl)cc1.O=C(O)[C@H](O)[C@@H](O)[C@H](O)[C@H](O)CO.O=C(O)[C@H](O)[C@@H](O)[C@H](O)[C@H](O)CO` [chlorhexidine digluconate], the “effect on FLC tolerance in FLC disk diffusion, PADH1-UPC2 strain” value in test [2] (PADH1-UPC2) is “unsuccessful in reducing FLC tolerance”. In addition, the “concentration that renders FLC fungicidal (no recovery on YPD solid medium)” value with C. albicans [3] was at most 3.125 µM.
For the compound `CCCCCCCCCCCC[N+](C)(C)CCOc1ccccc1` [domiphen bromide], in test [2], the “synergistic lethal effects with FLC compared to GdA and CsA (disk diffusion)” value is listed as “weaker synergistic lethal effects”. In addition, in the test with C. albicans [3], the “concentration that renders FLC fungicidal (no recovery on YPD solid medium)” value is at most 3.125 µM.
In the case of `CC(C)n1c(/C=C/C(O)CC(O)CC(=O)O)c(-c2ccc(F)cc2)c2ccccc21` (centres unmarked) [fluvastatin sodium, reference compound], the “synergistic lethal concentration (converts FLC from fungistatic to fungicidal)” value in the test on C. albicans [1] was at most 6.25 µM.
Turning to `CCC(C)n1ncn(-c2ccc(N3CCN(c4ccc(OCC5COC(Cn6cncn6)(c6ccc(Cl)cc6Cl)O5)cc4)CC3)cc2)c1=O` (centres unmarked) [itraconazole], the “effect of azole combined with PIT” value with C. albicans [3] is “synergistic lethal effects”.
Still for that read-out and setting: the result for `CC(=O)N1CCN(c2ccc(OCC3COC(Cn4ccnc4)(c4ccc(Cl)cc4Cl)O3)cc2)CC1` (centres unmarked) [ketoconazole] reads “synergistic lethal effects”; that for `Clc1ccc(COC(Cn2ccnc2)c2ccc(Cl)cc2Cl)c(Cl)c1` (centres unmarked) [miconazole], “synergistic lethal effects”.
Turning to `CCCCCCCCN=c1ccn(CCCCCCCCCCn2ccc(=NCCCCCCCC)cc2)cc1` [octenidine dihydrochloride], the “synergistic lethal effects with FLC compared to GdA and CsA (disk diffusion)” value in test [2] is recorded as “weaker synergistic lethal effects”. Besides, in the test with C. albicans [3], the “concentration that renders FLC fungicidal (no recovery on YPD solid medium)” value was at most 3.125 µM.
Take `C[C@@H](c1ncncc1F)[C@](O)(Cn1cncn1)c1ccc(F)cc1F` [voriconazole]: the “effect of azole combined with PIT” value in the test on C. albicans [3] is given as “synergistic lethal effects”.
On to ivermectin, for which the “synergistic lethal effects with FLC compared to GdA and CsA (disk diffusion)” value in test [2] was “weaker synergistic lethal effects”. Besides, in the test with C. albicans [1] (setting [4]), the Synergistic lethal concentrations amounted to 3.125 µM. Also, the “concentration that renders FLC fungicidal (no recovery on YPD solid medium)” value with C. albicans [3] was at most 3.125 µM.
